Data taken from article PMC3241888 (Nature chemical biology, 2011).

Biological target: T1, Pol δ (Saccharomyces cerevisiae, UniProt P15436)
T1 sequence (P15436 1-1097): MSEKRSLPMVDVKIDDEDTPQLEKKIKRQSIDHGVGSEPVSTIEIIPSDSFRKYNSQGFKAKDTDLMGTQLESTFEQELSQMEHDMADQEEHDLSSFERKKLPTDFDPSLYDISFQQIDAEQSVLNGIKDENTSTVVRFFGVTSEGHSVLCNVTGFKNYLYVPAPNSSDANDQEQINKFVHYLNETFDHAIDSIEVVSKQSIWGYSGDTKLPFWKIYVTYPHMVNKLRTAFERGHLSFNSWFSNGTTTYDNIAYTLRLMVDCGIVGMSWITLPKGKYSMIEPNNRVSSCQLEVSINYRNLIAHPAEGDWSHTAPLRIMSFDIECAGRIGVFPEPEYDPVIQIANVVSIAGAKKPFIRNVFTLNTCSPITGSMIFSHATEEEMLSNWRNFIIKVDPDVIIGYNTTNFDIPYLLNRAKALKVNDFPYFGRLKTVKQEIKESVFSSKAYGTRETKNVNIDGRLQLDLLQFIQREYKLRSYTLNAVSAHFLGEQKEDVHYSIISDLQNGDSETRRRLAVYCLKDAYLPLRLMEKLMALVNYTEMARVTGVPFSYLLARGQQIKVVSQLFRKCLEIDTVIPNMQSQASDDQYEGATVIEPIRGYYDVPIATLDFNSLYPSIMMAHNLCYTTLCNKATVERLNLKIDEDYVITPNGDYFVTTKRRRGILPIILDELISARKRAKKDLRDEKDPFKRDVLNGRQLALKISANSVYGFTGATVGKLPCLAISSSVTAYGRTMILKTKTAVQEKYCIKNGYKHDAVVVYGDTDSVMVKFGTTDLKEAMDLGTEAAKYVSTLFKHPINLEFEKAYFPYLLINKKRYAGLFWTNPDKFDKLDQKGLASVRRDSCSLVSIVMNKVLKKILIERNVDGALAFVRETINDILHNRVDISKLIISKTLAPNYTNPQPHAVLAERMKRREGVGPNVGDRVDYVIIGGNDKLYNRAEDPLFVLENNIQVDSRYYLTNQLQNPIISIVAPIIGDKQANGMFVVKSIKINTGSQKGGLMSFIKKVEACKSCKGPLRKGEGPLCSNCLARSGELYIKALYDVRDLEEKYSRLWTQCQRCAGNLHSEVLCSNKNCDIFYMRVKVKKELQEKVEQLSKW
T1 sequence (P46957 1-487 partner): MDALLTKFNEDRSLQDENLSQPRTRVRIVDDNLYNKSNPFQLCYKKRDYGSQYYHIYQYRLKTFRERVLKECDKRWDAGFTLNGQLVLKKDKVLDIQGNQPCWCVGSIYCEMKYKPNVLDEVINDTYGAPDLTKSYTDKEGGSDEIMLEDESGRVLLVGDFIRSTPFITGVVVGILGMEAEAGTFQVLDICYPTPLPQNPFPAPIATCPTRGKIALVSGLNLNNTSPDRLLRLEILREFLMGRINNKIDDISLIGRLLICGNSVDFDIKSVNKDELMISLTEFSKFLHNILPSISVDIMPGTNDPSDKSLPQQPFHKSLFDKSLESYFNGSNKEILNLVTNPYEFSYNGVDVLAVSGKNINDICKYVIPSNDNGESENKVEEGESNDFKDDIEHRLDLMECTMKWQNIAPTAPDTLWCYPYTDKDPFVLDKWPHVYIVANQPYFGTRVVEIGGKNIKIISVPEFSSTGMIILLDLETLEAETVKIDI
T1 sequence (P47110 1-350 partner): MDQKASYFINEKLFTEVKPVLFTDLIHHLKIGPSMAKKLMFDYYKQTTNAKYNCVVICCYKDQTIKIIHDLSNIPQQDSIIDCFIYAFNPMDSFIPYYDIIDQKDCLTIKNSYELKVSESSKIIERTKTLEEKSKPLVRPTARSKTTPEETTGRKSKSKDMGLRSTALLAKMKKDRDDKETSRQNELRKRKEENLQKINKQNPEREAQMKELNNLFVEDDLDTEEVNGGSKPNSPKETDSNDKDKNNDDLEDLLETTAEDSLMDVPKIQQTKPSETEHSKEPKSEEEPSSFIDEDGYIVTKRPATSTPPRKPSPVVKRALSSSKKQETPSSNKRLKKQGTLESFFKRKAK
Assay: UV-Vis
Assay type: binding
Conditions: CysB site of Pol3; as isolated from yeast

For `[S]12[Fe]3[S]4[Fe]1[S]1[Fe]2[S]3[Fe]41` [[4Fe-4S] cluster], the “mol non-heme iron and acid-labile sulfide ions per mol Pol δ” value was ~ 4 mol/mol.
